# US11819476B2, “Rapamycin analogs and uses thereof” (Janssen Pharmaceutica NV, priority 2019, dated 2023)
# Test system: pS6K1 in MCF7
# Assay: AlphaLISA Ultra pS6K1 Assay
# Format: cell-based
# Settings: Homo sapiens, 1.5 h; MCF7 cells, 90 min incubation
# Procedure: Example 74: AlphaLISA Ultra pS6K1 Assay
# Assay Protocol: • 1. Seed MCF-7 cells in Corning 3701 plate and incubate for 20˜24 hour. 12,000˜16,000 cells will be seeded in 36 μL medium per well. • 2. Change the culture medium with fresh medium and incubate for another 2 hours. • 3. Add 12 μL (4×) compounds into the cell plate by HAMILTON. Final DMSO concentration is 0.5%. Incubate for 90 minutes. • 4. Aspirate 38 μL by HAMILTON, 10 μL rest per well. • 5. Add 10 μL 2× lysis buffer using HAMILTON; total volume in wells is 20 μL. Allow cells to shake for 30 min. Cover plate by plastic foil and store plate at −80° C. up to analysis. • 6. Thaw cell lysate at RT and transfer 10 μL lysate to assay plate (Optiplate-384). • 7. Add 5 μL acceptor beads into assay plate and incubation for 2 hours • 8. Add 5 μL donor beads and incubation for 2 hours • 9. Count the plate by EnSpire Multimode Plate Reader
row,SMILES,IC50 [nM]
1,"CO[C@@H]1C[C@H](C[C@@H](C)[C@@H]2CC(=O)[C@H](C)/C=C(\C)[C@@H](O)[C@@H](OC)C(=O)[C@H](C)C[C@H](C)/C=C/C=C/C=C(\C)C(OCCCC(=O)O)C[C@@H]3CC[C@@H](C)[C@@](O)(O3)C(=O)C(=O)N3CCCC[C@H]3C(=O)O2)CC[C@H]1OCCO (stereo partly drawn) [Example I-30, 4-[[(21E,23E,25E,26E,33R,34S,35R,36R,38S,40S,43S,44R,45R,55R)-44,55-dihydroxy-43-[(1R)-2-[(1S,3R,4R)-4-(2-hydroxyethoxy)-3-methoxy-cyclohexyl]-1-methyl-ethyl]-45-methoxy-33,34,35,36,46,47-hexamethyl-48,49,50,51,52-pentaoxo-67,68-dioxa-56-azatricyclohexatriaconta-21,23,25(46),26(47)-tetraen-42-yl]oxy]butanoic acid]",≥ 100
2,"COCCSC1C[C@@H]2CC[C@@H](C)[C@@](O)(O2)C(=O)C(=O)N2CCCC[C@H]2C(=O)O[C@H]([C@H](C)C[C@@H]2CC[C@@H](O)[C@H](OC)C2)CC(=O)[C@H](C)/C=C(\C)[C@@H](O)[C@@H](OC)C(=O)[C@H](C)C[C@H](C)/C=C/C=C/C=C/1C (stereo partly drawn) [Example I-31, (22E,24E,26E,27E,33R,34S,35R,36R,38S,40S,43S,44S,45R,54R)-44,54-dihydroxy-43-[(1R)-2-[(1S,3R,4R)-4-hydroxy-3-methoxy-cyclohexyl]-1-methyl-ethyl]-45-methoxy-42-[2-(2-methoxyethoxy)ethylsulfanyl]-33,34,35,36,46,47-hexamethyl-64,65-dioxa-55-azatricyclohexatriaconta-22,24,26(46),27(47)-tetraene-48,49,50,51,52-pentone]",1 to 10
3,"CO[C@@H]1C[C@H](C[C@@H](C)[C@@H]2CC(=O)[C@H](C)/C=C(\C)[C@@H](O)[C@@H](OC)C(=O)[C@H](C)C[C@H](C)/C=C/C=C/C=C(\C)C(NC(=O)OCCOCCO)C[C@@H]3CC[C@@H](C)[C@@](O)(O3)C(=O)C(=O)N3CCCC[C@H]3C(=O)O2)CC[C@H]1O (stereo partly drawn) [Example I-32, 2-(2-hydroxyethoxy)ethyl N-[(21E,23E,25E,26E,32R,33S,34R,35R,37S,39S,42S,43R,44R,54R)-43,54-dihydroxy-42-[(1R)-2-[(1S,3R,4R)-4-hydroxy-3-methoxy-cyclohexyl]-1-methyl-ethyl]-44-methoxy-32,33,34,35,45,46-hexamethyl-47,48,49,50,51-pentaoxo-67,68-dioxa-56-azatricyclohexatriaconta-21,23,25(45),26(46)-tetraen-41-yl]carbamate]",1 to 10
4,"CO[C@@H]1C[C@H](C[C@@H](C)[C@@H]2CC(=O)[C@H](C)/C=C(\C)[C@@H](O)[C@@H](OC)C(=O)[C@H](C)C[C@H](C)/C=C/C=C/C=C(\C)C(OCCCCCO)C[C@@H]3CC[C@@H](C)[C@@](O)(O3)C(=O)C(=O)N3CCCC[C@H]3C(=O)O2)CC[C@H]1O (stereo partly drawn) [Example I-34, (21E,23E,25E,26E,33R,34S,35R,36R,38S,40S,43S,44R,45R,54R)-44,54-dihydroxy-43-[(1R)-2-[(1S,3R,4R)-4-hydroxy-3-methoxy-cyclohexyl]-1-methyl-ethyl]-42-(5-hydroxypentoxy)-45-methoxy-33,34,35,36,46,47-hexamethyl-65,66-dioxa-55-azatricyclohexatriaconta-21,23,25(46),26(47)-tetraene-48,49,50,51,52-pentone]",0.1 to 1
5,"COc1ccc([C@@H]2C[C@@H]3CC[C@@H](C)[C@@](O)(O3)C(=O)C(=O)N3CCCC[C@H]3C(=O)O[C@H]([C@H](C)C[C@@H]3CC[C@@H](O)[C@H](OC)C3)CC(=O)[C@H](C)/C=C(\C)[C@H](O)[C@@H](OC)C(=O)[C@H](C)C[C@H](C)/C=C/C=C/C=C/2C)c(OC)c1 [Example I-37, (26E,28E,30E,31E,36R,37S,38R,39R,41S,43S,44R,46S,47R,48R,57R)-44-(2,4-dimethoxyphenyl)-47,57-dihydroxy-46-[(1R)-2-[(1S,3R,4R)-4-hydroxy-3-methoxy-cyclohexyl]-1-methyl-ethyl]-48-methoxy-36,37,38,39,49,50-hexamethyl-67,68-dioxa-58-azatricyclohexatriaconta-26,28,30(49),31(50)-tetraene-51,52,53,54,55-pentone]",≥ 100
6,"COc1ccc([C@H]2C[C@@H]3CC[C@@H](C)[C@@](O)(O3)C(=O)C(=O)N3CCCC[C@H]3C(=O)O[C@H]([C@H](C)C[C@@H]3CC[C@@H](O)[C@H](OC)C3)CC(=O)[C@H](C)/C=C(\C)[C@H](O)[C@@H](OC)C(=O)[C@H](C)C[C@H](C)/C=C/C=C/C=C/2C)c(OC)c1 [Example I-38, (26E,28E,30E,31E,36R,37S,38R,39R,41S,43S,44S,46S,47R,48R,57R)-44-(2,4-dimethoxyphenyl)-47,57-dihydroxy-46-[(1R)-2-[(1S,3R,4R)-4-hydroxy-3-methoxy-cyclohexyl]-1-methyl-ethyl]-48-methoxy-36,37,38,39,49,50-hexamethyl-67,68-dioxa-58-azatricyclohexatriaconta-26,28,30(49),31(50)-tetraene-51,52,53,54,55-pentone]",10 to 100

# Test system: pS6K1 T389 in PC3 cells (mTORC1 pathway)
# Assay: Western blot based pS6K1 assay (mTORC1 pathway)
# Format: cell-based
# Settings: 24 hours
# Procedure: Example 76: Western Blot Based pS6K1 and pAKT Assay at 24 and 48 Hour Timepoints
# Assay Protocol: • 1. Seed six well plate with 500,000 PC3 cells per well and incubate for […]. • 2. Add compounds into the cell plate. Incubate for 24 to 48 hours. • 4. Plate is placed on ice and the media is removed via aspiration. The wells are washed with 1 mL of 1×PBS and then fully aspirated. • 5. 110 μL of 1% Triton Lysis Buffer is added and each well is scraped vigorously. • 6. Cell homogenates are transferred to 1.5 mL eppendorf tubes on ice and spun down at 4° C. for 10 minutes at 10,000 rpm. • 7. Protein concentration of resulting cell lysates were quantified utilizing a Bradford assay and the samples run analyzed via Western blot on 4-12% Bis/Tris gels with 1×MES buffer. • 8. The gels were transferred onto membranes at 50V for 100 minutes, blocked with Odyssey Blocking buffer for 30 minutes then incubated overnight with primary antibody (pS6K1 T389 Rabbit or pAkt S473 Rabbit) overnight at 4° C. on a rotator. • 9. The membranes were washed 3× with TBS-T with a 5 minute incubation between each wash then incubated with secondary antibody (LiCor IRDye 800 Donkey Anti Rabbit) for at least 30 minutes. • 10. The membranes were washed 3× with TBS-T with a 5 minute incubation between each wash. • 11. The gels were then incubated for 5 minutes with PBS at room temperature then imaged using a Li-Cor.
# PC3 cells were treated with everolimus (0.1 μM, 0.01 μM, and 0.001 μM) or I-9 ([…], 0.1 μM, 0.01 μM, and 0.001 μM) for 24 hours.
# The methods employed were substantially similar to those described above. Compounds were evaluated in PC3 cells. Additional cell lines that may be used include Jurkat cells, wild-type mouse embryotic fibroblast (MEF) cells, tuberous sclerosis 2 (TSC2) negative (TSC−/−) MEF cells, and tuberous sclerosis 2 (TSC2) positive (TSC+/+) MEF cells. Cells are incubated with compounds of the present invention for various time periods (e.g., 5 minutes, 15 minutes, 30 minutes, 90 minutes, 24 hours, or 48 hours), and evaluated according to known methodologies, such as those herein described.
row,SMILES,"inhibition of the mTORC1 pathway (pS6K1, Western blot)"
1,"CO[C@@H]1C[C@H](C[C@@H](C)[C@@H]2CC(=O)[C@H](C)/C=C(\C)[C@@H](O)[C@@H](OC)C(=O)[C@H](C)C[C@H](C)/C=C/C=C/C=C(\C)[C@@H](OCCC3CCNC3=O)C[C@@H]3CC[C@@H](C)[C@@](O)(O3)C(=O)C(=O)N3CCCC[C@H]3C(=O)O2)CC[C@H]1OCCO (stereo partly drawn) [Example I-3, (23E,25E,27E,28E,34R,35S,36R,37R,39S,42S,44S,45S,46R,47R,57R)-46,57-dihydroxy-45-[(1R)-2-[(1S,3R,4R)-4-(2-hydroxyethoxy)-3-methoxy-cyclohexyl]-1-methyl-ethyl]-47-methoxy-34,35,36,37,48,49-hexamethyl-44-[2-(2-oxopyrrolidin-3-yl)ethoxy]-69,70-dioxa-59-azatricyclohexatriaconta-23,25,27(48),28(49)-tetraene-50,51,53,54,55-pentone]",strong inhibition
2,"CO[C@@H]1C[C@H](C[C@@H](C)[C@@H]2CC(=O)[C@H](C)/C=C(\C)[C@@H](O)[C@@H](OC)C(=O)[C@H](C)C[C@H](C)/C=C/C=C/C=C(\C)[C@@H](OCCCC3CCNC3=O)C[C@@H]3CC[C@@H](C)[C@@](O)(O3)C(=O)C(=O)N3CCCC[C@H]3C(=O)O2)CC[C@H]1OCCO (stereo partly drawn) [Example I-15, (23E,25E,27E,28E,35R,36S,37R,38R,40S,43S,45S,46S,47R,48R,58R)-47,58-dihydroxy-46-[(1R)-2-[(1S,3R,4R)-4-(2-hydroxyethoxy)-3-methoxy-cyclohexyl]-1-methyl-ethyl]-48-methoxy-35,36,37,38,49,50-hexamethyl-45-[3-(2-oxopyrrolidin-3-yl)propoxy]-70,71-dioxa-60-azatricyclohexatriaconta-23,25,27(49),28(50)-tetraene-51,52,54,55,56-pentone]",strong inhibition
3,CO[C@@H]1C[C@H](C[C@@H](C)[C@@H]2CC(=O)[C@H](C)/C=C(\C)[C@@H](O)[C@@H](OC)C(=O)[C@H](C)C[C@H](C)/C=C/C=C/C=C(\C)[C@@H](OCCCCC(N)=O)C[C@@H]3CC[C@@H](C)[C@@](O)(O3)C(=O)C(=O)N3CCCC[C@H]3C(=O)O2)CC[C@H]1OCCO [Example I-48],strong inhibition
